Earlier results as cited in US10144913B1, “Method to increase the yield of products in plant material” (Arkansas State University-Jonesboro, priority 2012, dated 2018).

Columns and labels:
cannabinoid receptors = details: US 20120165281
[1] = in vitro, compared to resveratrol; US 20120165281
rotavirus = rotavirus infected HT29.f8 cells; Ball et al., 2015
[2] = in vitro, compared to resveratrol
HL-60 cells = details: caspase-dependent and caspase-independent pathways, Huang et al., 2010
[3] = target: type II cannabinoid receptor (Homo sapiens, UniProt P34972); details: effect of the isoprenyl moiety; Brents et al., 2012
Sequence of type II cannabinoid receptor (P34972 whole entry): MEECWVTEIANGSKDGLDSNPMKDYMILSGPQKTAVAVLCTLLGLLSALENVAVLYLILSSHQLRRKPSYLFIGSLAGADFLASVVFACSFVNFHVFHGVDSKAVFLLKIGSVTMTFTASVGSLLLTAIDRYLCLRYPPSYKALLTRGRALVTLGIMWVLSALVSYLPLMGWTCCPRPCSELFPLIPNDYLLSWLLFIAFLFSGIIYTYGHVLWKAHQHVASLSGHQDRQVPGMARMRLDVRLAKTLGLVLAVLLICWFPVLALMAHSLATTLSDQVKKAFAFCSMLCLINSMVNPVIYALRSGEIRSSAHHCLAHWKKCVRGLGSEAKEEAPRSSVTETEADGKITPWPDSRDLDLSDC

Row | SMILES | affinity to cannabinoid receptors (cannabinoid receptors) | metabolic profiles [1] | antiviral activity (inhibiting rotavirus replication) (rotavirus) | antioxidant activities [2] | anticancer activity (HL-60 cells) | binding affinity to type II cannabinoid receptor [3]
1 | CC(C)/C=C/c1c(O)cc(/C=C/c2ccc(O)c(O)c2)cc1O [arachidin-1] | have affinity | favorable metabolic profiles | exhibited antiviral activity | higher antioxidant activities than resveratrol | anticancer activity | improved binding affinity
2 | CC(C)/C=C/c1c(O)cc(/C=C/c2ccc(O)cc2)cc1O [arachidin-3] | have affinity | favorable metabolic profiles | exhibited antiviral activity | – | – | improved binding affinity
3 | Oc1ccc(C=Cc2cc(O)cc(O)c2)cc1 [resveratrol, reference compound] | – | – | not observed | – | – | –
